Measured values from ChEMBL document CHEMBL1153672, “Synthesis and biological activity of a novel class of cephalosporins with a oxadiazolyl hydroxypyridone moiety at C-7” (1995).
≈ marks a conversion by molar mass, not a printed value.

Tests used:
Type in all cases: functional
[1] = system: Escherichia coli; experiment: In vitro antibacterial activity against Escherichia coli ML4707
[2] = system: Pseudomonas aeruginosa; experiment: In vitro antibacterial activity against Pseudomonas aeruginosa IFO12689
[3] = system: Pseudomonas aeruginosa; experiment: In vitro antibacterial activity against Pseudomonas aeruginosa E-2
[4] = system: Staphylococcus aureus; experiment: In vitro antibacterial activity against Staphylococcus aureus Smith
[5] = system: Mus musculus; experiment: Tested in vivo for the therapeutic efficacy against systemic infection caused by Staphylococcus aureus Smith in mice at a challenge dose of 3.3*10e6 (cfu/mouse) + 5%mucin
[6] = system: Mus musculus; experiment: Tested in vivo for the therapeutic efficacy against systemic infection caused by Staphylococcus aureus Smith in mice at a challenge dose of 5*10e6 (cfu/mouse) + 5%mucin
[7] = system: Mus musculus; experiment: Tested in vivo for the therapeutic efficacy against systemic infection caused by Pseudomonas aeruginosa E-2 in mice at a challenge dose of 8*10e4 (cfu/mouse) + 5%mucin
[8] = organism: Mus musculus; experiment: Tested for the therapeutic efficacy against systemic infection caused by Pseudomonas aeruginosa E-2 in mice at a challenge dose of 7.9*10e4 (cfu/mouse) + 5%mucin
[9] = system: Pseudomonas aeruginosa; experiment: In vitro for the antibacterial activity against Pseudomonas aeruginosa E-2

MIC [1]	MIC [2]	MIC [3]	MIC [4]	MIC [9]	Structure (SMILES)	ED50 [5]	ED50 [6]	ED50 [7]	ED50 [8]
< 0.0063 µg/mL	0.39 µg/mL	0.2 µg/mL	6.25 µg/mL	–	Cc1cc(SCC2=C(C(=O)[O-])N3C(=O)[C@@H](NC(=O)/C(=N\OCCSc4nnc(-c5cc(O)c(O)cn5)o4)c4csc(N)n4)[C@H]3SC2)n2nc(CO)nc2n1.[Na+]	–	–	–	–
0.0125 µg/mL (≈ 0.0274 µM)	25 µg/mL (≈ 54.9 µM)	25 µg/mL (≈ 54.9 µM)	1.56 µg/mL (≈ 3.43 µM)	–	CO/N=C(\C(=O)N[C@@H]1C(=O)N2C(C(=O)O)=C(COC(C)=O)CS[C@H]12)c1csc(N)n1 [CEFOTAXIME]	3 mg/kg	4.6 mg/kg	–	–
–	–	–	–	–	CO/N=C(\C(=O)N[C@@H]1C(=O)N2C(C(=O)[O-])=C(C[n+]3cccc4c3CCC4)CS[C@H]12)c1csc(N)n1 [CEFPIROME]	1.5 mg/kg	–	–	–
0.0125 µg/mL	0.39 µg/mL	3.13 µg/mL	25 µg/mL	–	Nc1nc(/C(=N/OCCSc2nnc(-c3cc(O)c(O)cn3)o2)C(=O)N[C@@H]2C(=O)N3C(C(=O)[O-])=C(C[n+]4ccc(C(=O)[O-])cc4)CS[C@H]23)cs1.[Na+]	–	–	–	–
≤ 0.0063 µg/mL	0.2 µg/mL	0.2 µg/mL	6.25 µg/mL	–	Nc1nc(/C(=N/OCCSc2nnc(-c3cc(O)c(O)cn3)o2)C(=O)N[C@@H]2C(=O)N3C(C(=O)[O-])=C(CSc4nnc(N)s4)CS[C@H]23)cs1.[Na+]	–	> 20 mg/kg	35 mg/kg	–
0.025 µg/mL	1.56 µg/mL	3.13 µg/mL	6.25 µg/mL	–	NC(=O)c1cc[n+](CC2=C(C(=O)[O-])N3C(=O)[C@@H]([N-]C(=O)/C(=N\OCCSc4nnc(-c5cc(O)c(O)cn5)o4)c4csc(N)n4)[C@H]3SC2)cc1.[Na+]	–	–	–	–
–	–	–	3.13 µg/mL	6.25 µg/mL	Nc1nc(/C(=N/OCc2cc(O)c(O)cn2)C(=O)[N-][C@@H]2C(=O)N3C(C(=O)[O-])=C(CSc4cc[n+](CCO)cc4)CS[C@H]23)cs1.[Na+]	0.86 mg/kg	–	–	> 40 mg/kg
–	–	–	0.39 µg/mL	0.39 µg/mL	Nc1nc(/C(=N/OCCSc2nnc(-c3ccc(O)c(O)c3)o2)C(=O)[N-][C@@H]2C(=O)N3C(C(=O)[O-])=C(CSc4cc[n+](CCO)cc4)CS[C@H]23)cs1.[Na+]	0.86 mg/kg	–	–	34 mg/kg
0.025 µg/mL	0.78 µg/mL	3.13 µg/mL	3.13 µg/mL	–	Nc1nc(/C(=N/OCCSc2nnc(-c3cc(O)c(O)cn3)o2)C(=O)[N-][C@@H]2C(=O)N3C(C(=O)[O-])=C(C[n+]4ccccc4)CS[C@H]23)cs1.[Na+]	–	–	–	–
0.0125 µg/mL	0.78 µg/mL	0.78 µg/mL	3.13 µg/mL	–	Nc1nc(/C(=N/OCCSc2nnc(-c3cc(O)c(O)cn3)o2)C(=O)N[C@@H]2C(=O)N3C(C(=O)[O-])=C(CSc4nc5ccccc5s4)CS[C@H]23)cs1.[Na+]	–	–	> 100 mg/kg	–
≤ 0.0063 µg/mL	0.39 µg/mL	1.56 µg/mL	12.5 µg/mL	–	Nc1nc(/C(=N/OCCSc2nnc(-c3cc(O)c(O)cn3)o2)C(=O)N[C@@H]2C(=O)N3C(C(=O)[O-])=C(CSc4cc[n+](CC(=O)[O-])cc4)CS[C@H]23)cs1.[Na+]	–	–	25 mg/kg	–
0.0125 µg/mL	0.78 µg/mL	0.78 µg/mL	3.13 µg/mL	–	Nc1nc(/C(=N/OCCSc2nnc(-c3cc(O)c(O)cn3)o2)C(=O)[N-][C@@H]2C(=O)N3C(C(=O)[O-])=C(C[n+]4ccc(SCCO)cc4)CS[C@H]23)cs1.[Na+]	–	–	–	–
≤ 0.0063 µg/mL	0.039 µg/mL	0.39 µg/mL	6.25 µg/mL	–	Nc1nc(/C(=N/OCCSc2nnc(-c3cc(O)c(O)cn3)o2)C(=O)N[C@@H]2C(=O)N3C(C(=O)[O-])=C(CSc4ccccn4)CS[C@H]23)cs1.[Na+]	–	–	–	–
≤ 0.0063 µg/mL	0.78 µg/mL	0.39 µg/mL	3.13 µg/mL	–	CC[n+]1ccc(SCC2=C(C(=O)[O-])N3C(=O)[C@@H]([N-]C(=O)/C(=N\OCCSc4nnc(-c5cc(O)c(O)cn5)o4)c4csc(N)n4)[C@H]3SC2)cc1.[Na+]	–	< 0.6 mg/kg	19 mg/kg	–
≤ 0.0063 µg/mL	0.39 µg/mL	0.78 µg/mL	6.25 µg/mL	–	Nc1nc(/C(=N/OCCSc2nnc(-c3cc(O)c(O)cn3)o2)C(=O)N[C@@H]2C(=O)N3C(C(=O)[O-])=C(CSc4nnc(-c5ccncc5)o4)CS[C@H]23)cs1.[Na+]	–	–	–	–
–	–	–	0.39 µg/mL	100 µg/mL	Nc1nc(/C(=N/OCCSc2nnc(-c3ccccn3)o2)C(=O)[N-][C@@H]2C(=O)N3C(C(=O)[O-])=C(CSc4cc[n+](CCO)cc4)CS[C@H]23)cs1.[Na+]	0.43 mg/kg	–	–	> 40 mg/kg
0.025 µg/mL	3.13 µg/mL	0.78 µg/mL	6.25 µg/mL	–	CN(C)CC[n+]1ccc(SCC2=C(C(=O)[O-])N3C(=O)[C@@H]([N-]C(=O)/C(=N\OCCSc4nnc(-c5cc(O)c(O)cn5)o4)c4csc(N)n4)[C@H]3SC2)cc1.[Na+]	–	–	–	–
≤ 0.0063 µg/mL	0.78 µg/mL	0.39 µg/mL	3.13 µg/mL	–	Nc1nc(/C(=N/OCCSc2nnc(-c3cc(O)c(O)cn3)o2)C(=O)[N-][C@@H]2C(=O)N3C(C(=O)[O-])=C(CSc4cc[n+](CCO)cc4)CS[C@H]23)cs1.[Na+]	0.86 mg/kg	< 0.3 mg/kg	4.2 mg/kg	7.2 mg/kg
≤ 0.0063 µg/mL	0.2 µg/mL	0.78 µg/mL	3.13 µg/mL	–	Nc1nc(/C(=N/OCCSc2nnc(-c3cc(O)c(O)cn3)o2)C(=O)N[C@@H]2C(=O)N3C(C(=O)[O-])=C(CSc4cnns4)CS[C@H]23)cs1.[Na+]	–	–	–	–

Structure (SMILES)	MIC [1]	MIC [2]	MIC [3]	MIC [4]	MIC [9]	ED50 [5]	ED50 [6]	ED50 [7]	ED50 [8]
CC(C)(O/N=C(\C(=O)N[C@@H]1C(=O)N2C(C(=O)[O-])=C(C[n+]3ccccc3)CS[C@H]12)c1csc(N)n1)C(=O)O [CEFTAZIDIME]	0.05 µg/mL (≈ 0.0915 µM)	3.13 µg/mL (≈ 5.73 µM)	1.56 µg/mL (≈ 2.85 µM)	3.13 µg/mL (≈ 5.73 µM)	–	–	8.1 mg/kg	55 mg/kg	> 100 mg/kg
